Results: PubChem BioAssay (NCI)
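In this assay, cells in 96-well plates receive the compound at five concentrations for 48 hours. Endpoints are linearly interpolated between the surrounding concentrations. TGI is the concentration that stops growth completely.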 Where a SMILES comes first, the peptide text is derived from it. Bridges are numbered along the chain shown (N, C = ends). [ ]: non-standard residue; d: D form. The star is where a group is joined. PhAc = O=C(Cc1ccccc1)*

Legend:
Assay in all cases: NCI anticancer screen, dose series, 48 h
[1] = test system: A549 NSCLC
[2] = test system: EKVX NSCLC
[3] = test system: HOP-92 NSCLC
[4] = test system: HT29 colon
[5] = test system: KM12 colon
[6] = test system: MALME-3M melanoma
[7] = test system: NCI-H226 lung
[8] = test system: NCI-H460 lung
[9] = test system: NCI/ADR-RES ovarian
[10] = test system: PC-3 prostate
[11] = test system: SF-268 CNS
[12] = test system: SK-MEL-2 melanoma
[13] = test system: SK-MEL-28 melanoma
[14] = test system: SK-MEL-5 melanoma
[15] = test system: SNB-19 CNS
[16] = test system: SR leukemia
[17] = test system: T-47D breast
[18] = test system: A498 renal
[19] = test system: HL-60(TB) leukemia

| SMILES | TGI [1] [µM] | TGI [2] [µM] | TGI [3] [µM] | TGI [4] [µM] | TGI [5] [µM] | TGI [6] [µM] | TGI [7] [µM] | TGI [8] [µM] | TGI [9] [µM] | TGI [10] [µM] | TGI [11] [µM] | TGI [12] [µM] | TGI [13] [µM] | TGI [14] [µM] | TGI [15] [µM] | TGI [16] [µM] | TGI [17] [µM] | TGI [18] [µM] | TGI [19] [µM] |
| --- | --- | --- | --- | --- | --- | --- | --- | --- | --- | --- | --- | --- | --- | --- | --- | --- | --- | --- | --- |
| CC(=O)OCc1ccc2oc(=O)c(C(=O)Oc3cccc(Cl)c3)cc2c1 | > 100 | > 100 | 43.5 | 80.2 | > 100 | > 100 | > 100 | > 100 | > 100 | 34.4 | > 100 | > 100 | > 100 | > 100 | > 100 | > 100 | 41 | – | – |
| O=Nc1c(-c2c(O)[nH]c3ccccc23)[nH]c2ccccc12 | > 55.1 | 9.12 | > 29.6 | > 57.8 | > 38.7 | 27.8 | – | 28.7 | > 100 | 28.1 | > 74.1 | 7.62 | 27.7 | 26.4 | > 100 | > 100 | > 48.7 | 13.9 | 12.3 |
| COc1cccc(C(=O)Nc2c3ccccc3nc3ccccc23)c1OC | > 100 | > 100 | – | > 100 | > 100 | > 100 | > 100 | > 100 | > 100 | > 100 | > 100 | > 100 | > 100 | > 100 | > 100 | > 100 | > 100 | – | > 100 |
| O=C(Nc1cc2c(=O)[nH]c3ccccc3c2oc1=O)c1cnccn1 | > 100 | > 100 | > 100 | > 100 | > 100 | > 100 | > 100 | > 100 | > 100 | > 100 | – | > 100 | > 100 | > 100 | > 100 | > 100 | > 100 | – | – |
| Cc1ccc2nc(N/N=C/c3ccc(C)s3)cc(C)c2c1 | 21.1 | 26.1 | 21 | 12.4 | 16.1 | 32 | 31.7 | – | 47.2 | 24.1 | 35.4 | 35.3 | 28.9 | 20.4 | 27.2 | > 100 | 41.9 | – | – |
| O=C(NCCc1ccccc1)[C@H]1CCCC[C@@H]1CCO | > 100 | > 100 | > 100 | > 100 | > 100 | – | > 100 | > 100 | > 100 | > 100 | > 100 | > 100 | > 100 | > 100 | – | > 100 | > 100 | > 100 | > 100 |
| CCOC(=O)N1CC2(C)C=CC1C(C(=O)OC)C2 (stereo not given) | > 100 | > 100 | – | > 100 | > 100 | > 100 | > 100 | > 100 | > 100 | > 100 | > 100 | > 100 | > 100 | > 100 | > 100 | > 100 | > 100 | > 100 | > 100 |
| O=C(Cc1ccccc1)N[C@@H]1COC(=O)[C@@H]2CCCN2C(=O)[C@@H]2CCCN2C1=O (PhAc-[dS]-Pro-Pro; ester 1-C) | > 100 | > 100 | > 100 | > 100 | > 100 | > 100 | – | > 100 | > 100 | > 100 | > 100 | > 100 | > 100 | > 100 | > 100 | > 100 | > 100 | > 100 | > 100 |
| CC1=CC=C2c3ccccc3C=CN2C(=O)C1 | > 100 | > 100 | – | > 100 | > 100 | > 100 | > 100 | > 100 | > 100 | > 100 | > 100 | > 100 | > 100 | 46.1 | > 100 | > 100 | > 100 | – | 41.2 |
| CC1C(=NO)C(C)C(c2ccccc2)N(N=O)C1c1ccccc1 (stereo not given) | 40.7 | 81.8 | 49.3 | 33.8 | 29.8 | 34.6 | 55.2 | 32.1 | 37 | > 100 | 35.7 | 39.5 | 32.3 | 33.1 | 50.5 | 45.7 | 38.9 | – | 88.6 |
| CCc1n[nH]c(=O)n1N1C(=O)CCC1=O | > 100 | > 100 | – | > 100 | > 100 | > 100 | > 100 | > 100 | > 100 | > 100 | > 100 | > 100 | > 100 | > 100 | > 100 | > 100 | > 100 | > 100 | – |
| Cc1ccc2c3c(cnc2n1)C(=O)OCCN3C | > 100 | > 100 | > 100 | > 100 | > 100 | – | – | > 100 | > 100 | > 100 | > 100 | > 100 | > 100 | > 100 | > 100 | > 100 | > 100 | > 100 | > 100 |
| COc1ccc(/C=N/n2c(=O)[nH]c3ccccc3c2=O)cc1 | > 100 | > 100 | > 100 | > 100 | > 100 | – | > 100 | > 100 | > 100 | > 100 | > 100 | > 100 | > 100 | > 100 | > 100 | > 100 | > 100 | > 100 | – |
| CC1(C)C=Cc2c(cc3oc4ccc5c(c4c(=O)c3c2O)C=CC(C)(C)O5)O1 | > 100 | > 100 | > 100 | > 100 | > 100 | > 100 | > 100 | – | > 100 | > 100 | > 100 | > 100 | > 100 | > 100 | > 100 | > 100 | > 100 | > 100 | – |
